{
  "source": "paper PMC6825211",
  "about": "(Nature Communications, 2019)",
  "key": {"AXL": {"target": "T1, AXL (Homo sapiens, UniProt P30530)", "T1 construct": "Nanosyn (assay service)", "T1 sequence (P30530 26-894, species assumed)": "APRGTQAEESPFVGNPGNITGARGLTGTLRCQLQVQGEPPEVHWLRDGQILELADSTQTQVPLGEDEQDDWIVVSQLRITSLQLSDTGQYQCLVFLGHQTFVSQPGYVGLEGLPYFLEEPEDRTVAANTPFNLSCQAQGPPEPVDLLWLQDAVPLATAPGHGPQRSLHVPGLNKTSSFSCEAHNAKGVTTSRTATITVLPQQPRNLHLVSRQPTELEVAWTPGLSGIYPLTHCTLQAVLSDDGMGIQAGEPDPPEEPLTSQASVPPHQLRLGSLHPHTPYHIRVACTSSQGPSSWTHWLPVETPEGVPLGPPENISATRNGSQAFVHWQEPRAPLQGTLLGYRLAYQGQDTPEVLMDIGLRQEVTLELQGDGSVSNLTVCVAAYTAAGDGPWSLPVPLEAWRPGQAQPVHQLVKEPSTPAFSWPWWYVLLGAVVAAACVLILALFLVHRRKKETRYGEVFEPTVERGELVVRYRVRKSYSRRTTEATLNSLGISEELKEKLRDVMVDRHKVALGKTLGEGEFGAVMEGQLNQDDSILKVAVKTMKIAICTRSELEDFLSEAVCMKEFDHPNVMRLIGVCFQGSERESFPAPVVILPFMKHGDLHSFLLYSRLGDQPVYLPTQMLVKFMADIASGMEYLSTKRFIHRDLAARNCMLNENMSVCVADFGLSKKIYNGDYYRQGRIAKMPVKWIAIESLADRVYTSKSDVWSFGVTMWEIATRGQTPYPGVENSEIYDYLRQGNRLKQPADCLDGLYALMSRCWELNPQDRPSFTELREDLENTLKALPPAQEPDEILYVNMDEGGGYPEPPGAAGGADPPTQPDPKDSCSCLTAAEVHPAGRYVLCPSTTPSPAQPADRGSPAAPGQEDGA", "assay": "Nanosyn kinase profiling, mobility shift assay", "type": "biochemical", "conditions": "12 points dose response", "method": "(§1) inhibition was determined for each assay."}, "CHEK2": {"target": "T2, CHEK2 (Homo sapiens, UniProt O96017)", "T2 construct": "Nanosyn (assay service)", "T2 sequence (O96017 whole entry, species assumed)": "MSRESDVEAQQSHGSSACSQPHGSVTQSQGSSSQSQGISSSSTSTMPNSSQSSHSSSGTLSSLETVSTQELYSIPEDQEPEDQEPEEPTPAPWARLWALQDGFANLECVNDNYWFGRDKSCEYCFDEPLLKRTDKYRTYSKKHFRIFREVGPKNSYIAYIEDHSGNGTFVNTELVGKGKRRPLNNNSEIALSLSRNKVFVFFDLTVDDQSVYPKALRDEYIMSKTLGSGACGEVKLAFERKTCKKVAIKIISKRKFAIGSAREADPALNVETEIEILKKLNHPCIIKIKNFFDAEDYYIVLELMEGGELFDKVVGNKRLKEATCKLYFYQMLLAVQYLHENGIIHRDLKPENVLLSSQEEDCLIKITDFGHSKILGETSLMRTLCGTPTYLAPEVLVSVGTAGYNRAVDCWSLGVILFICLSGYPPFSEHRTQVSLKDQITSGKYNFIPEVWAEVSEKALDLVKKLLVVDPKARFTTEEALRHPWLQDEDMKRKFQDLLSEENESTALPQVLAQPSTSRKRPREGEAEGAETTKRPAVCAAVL", "assay": "Nanosyn kinase profiling, mobility shift assay", "type": "biochemical", "conditions": "12 points dose response", "method": "as §1"}, "HIPK1": {"target": "T3, HIPK1 (Homo sapiens, UniProt Q86Z02)", "T3 construct": "Nanosyn (assay service)", "assay": "Nanosyn kinase profiling, mobility shift assay", "type": "biochemical", "conditions": "12 points dose response", "method": "as §1"}, "MAP4K2": {"target": "MAP4K2 (Homo sapiens, UniProt Q12851)", "sequence (Q12851 whole entry, species assumed)": "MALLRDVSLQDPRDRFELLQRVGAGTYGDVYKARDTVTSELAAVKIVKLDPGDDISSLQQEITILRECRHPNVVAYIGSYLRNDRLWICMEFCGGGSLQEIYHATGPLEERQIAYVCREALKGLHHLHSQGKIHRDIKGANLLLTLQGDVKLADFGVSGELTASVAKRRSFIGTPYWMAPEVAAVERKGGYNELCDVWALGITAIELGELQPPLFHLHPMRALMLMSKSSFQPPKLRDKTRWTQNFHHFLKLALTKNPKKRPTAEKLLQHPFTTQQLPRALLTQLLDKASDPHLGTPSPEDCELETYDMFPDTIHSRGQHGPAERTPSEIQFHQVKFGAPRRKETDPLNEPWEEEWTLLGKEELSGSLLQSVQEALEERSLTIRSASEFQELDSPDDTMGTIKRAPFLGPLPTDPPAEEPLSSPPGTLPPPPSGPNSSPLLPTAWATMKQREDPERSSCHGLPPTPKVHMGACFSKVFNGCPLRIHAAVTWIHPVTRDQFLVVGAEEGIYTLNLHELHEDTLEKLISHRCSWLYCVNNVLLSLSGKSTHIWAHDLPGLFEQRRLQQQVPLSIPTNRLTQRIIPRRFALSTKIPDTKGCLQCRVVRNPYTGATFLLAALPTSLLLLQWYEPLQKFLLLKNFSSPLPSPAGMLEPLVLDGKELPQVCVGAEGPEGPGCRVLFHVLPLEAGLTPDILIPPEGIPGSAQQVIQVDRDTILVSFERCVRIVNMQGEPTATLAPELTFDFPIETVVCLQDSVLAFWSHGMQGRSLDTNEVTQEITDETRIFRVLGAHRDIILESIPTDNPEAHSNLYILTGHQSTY", "assay": "Nanosyn kinase profiling, mobility shift assay", "type": "biochemical", "conditions": "12 points dose response", "method": "as §1"}, "MST3": {"target": "T4, MST3 (Homo sapiens, UniProt Q9Y6E0)", "T4 construct": "Nanosyn (assay service)", "T4 sequence (Q9Y6E0 whole entry, species assumed)": "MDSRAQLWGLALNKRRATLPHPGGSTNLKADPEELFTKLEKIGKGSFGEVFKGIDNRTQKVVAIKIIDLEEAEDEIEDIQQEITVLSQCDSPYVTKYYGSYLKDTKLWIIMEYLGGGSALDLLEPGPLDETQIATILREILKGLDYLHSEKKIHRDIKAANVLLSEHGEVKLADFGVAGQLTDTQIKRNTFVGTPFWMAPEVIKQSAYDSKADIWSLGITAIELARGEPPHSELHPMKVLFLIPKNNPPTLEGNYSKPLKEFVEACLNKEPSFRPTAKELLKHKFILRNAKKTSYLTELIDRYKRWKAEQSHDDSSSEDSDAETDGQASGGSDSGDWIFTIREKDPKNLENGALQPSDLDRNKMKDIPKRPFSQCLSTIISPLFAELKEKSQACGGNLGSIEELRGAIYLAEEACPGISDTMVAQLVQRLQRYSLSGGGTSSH", "assay": "Nanosyn kinase profiling, mobility shift assay", "type": "biochemical", "conditions": "12 points dose response", "method": "as §1"}, "PAK3": {"target": "PAK3 (Homo sapiens, UniProt O75914)", "sequence (O75914 whole entry, species assumed)": "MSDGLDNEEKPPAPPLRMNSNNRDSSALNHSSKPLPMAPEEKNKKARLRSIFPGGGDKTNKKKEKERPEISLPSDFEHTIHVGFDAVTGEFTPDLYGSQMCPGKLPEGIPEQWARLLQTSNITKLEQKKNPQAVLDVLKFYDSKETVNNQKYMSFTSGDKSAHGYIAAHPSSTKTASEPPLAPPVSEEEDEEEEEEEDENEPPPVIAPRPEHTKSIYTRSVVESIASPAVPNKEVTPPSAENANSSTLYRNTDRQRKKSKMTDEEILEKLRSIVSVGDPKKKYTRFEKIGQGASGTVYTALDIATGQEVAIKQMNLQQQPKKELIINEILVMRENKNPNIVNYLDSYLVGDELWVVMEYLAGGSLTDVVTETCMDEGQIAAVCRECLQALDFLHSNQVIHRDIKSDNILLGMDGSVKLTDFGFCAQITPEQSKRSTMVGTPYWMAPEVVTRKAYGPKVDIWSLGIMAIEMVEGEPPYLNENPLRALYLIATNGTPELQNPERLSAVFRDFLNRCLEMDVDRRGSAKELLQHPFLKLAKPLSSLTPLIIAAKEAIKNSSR", "assay": "Nanosyn kinase profiling, mobility shift assay", "type": "biochemical", "conditions": "12 points dose response", "method": "as §1"}, "PAK5": {"target": "T5, PAK5 (Homo sapiens, UniProt Q9P286)", "T5 construct": "Nanosyn (assay service)", "assay": "Nanosyn kinase profiling, mobility shift assay", "type": "biochemical", "conditions": "12 points dose response", "method": "as §1"}, "PAK6": {"target": "T6, PAK6 (Homo sapiens, UniProt Q9NQU5)", "T6 construct": "Nanosyn (assay service)", "T6 sequence (Q9NQU5 whole entry, species assumed)": "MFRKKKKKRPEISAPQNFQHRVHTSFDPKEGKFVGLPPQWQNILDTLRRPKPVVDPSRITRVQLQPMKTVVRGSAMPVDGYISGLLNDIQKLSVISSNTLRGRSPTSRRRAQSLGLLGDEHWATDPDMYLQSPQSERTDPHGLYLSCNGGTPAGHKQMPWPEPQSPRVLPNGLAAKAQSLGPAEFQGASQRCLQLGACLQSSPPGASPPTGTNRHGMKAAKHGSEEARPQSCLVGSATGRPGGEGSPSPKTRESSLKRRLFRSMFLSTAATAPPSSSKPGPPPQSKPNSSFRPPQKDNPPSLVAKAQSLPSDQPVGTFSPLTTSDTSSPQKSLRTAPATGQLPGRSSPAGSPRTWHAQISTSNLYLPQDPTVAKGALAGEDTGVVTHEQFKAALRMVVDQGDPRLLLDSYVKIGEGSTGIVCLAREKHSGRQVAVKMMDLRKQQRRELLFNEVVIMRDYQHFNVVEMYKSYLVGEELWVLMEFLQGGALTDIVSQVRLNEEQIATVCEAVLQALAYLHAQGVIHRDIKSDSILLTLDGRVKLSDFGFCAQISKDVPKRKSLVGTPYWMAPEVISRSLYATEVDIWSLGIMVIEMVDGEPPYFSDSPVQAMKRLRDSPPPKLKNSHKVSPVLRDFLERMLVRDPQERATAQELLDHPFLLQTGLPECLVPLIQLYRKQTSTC", "assay": "Nanosyn kinase profiling, mobility shift assay", "type": "biochemical", "conditions": "12 points dose response", "method": "as §1"}, "PHK1": {"target": "T7, PHK1 (Homo sapiens, UniProt Q16816)", "T7 construct": "Nanosyn (assay service)", "T7 sequence (Q16816 whole entry)": "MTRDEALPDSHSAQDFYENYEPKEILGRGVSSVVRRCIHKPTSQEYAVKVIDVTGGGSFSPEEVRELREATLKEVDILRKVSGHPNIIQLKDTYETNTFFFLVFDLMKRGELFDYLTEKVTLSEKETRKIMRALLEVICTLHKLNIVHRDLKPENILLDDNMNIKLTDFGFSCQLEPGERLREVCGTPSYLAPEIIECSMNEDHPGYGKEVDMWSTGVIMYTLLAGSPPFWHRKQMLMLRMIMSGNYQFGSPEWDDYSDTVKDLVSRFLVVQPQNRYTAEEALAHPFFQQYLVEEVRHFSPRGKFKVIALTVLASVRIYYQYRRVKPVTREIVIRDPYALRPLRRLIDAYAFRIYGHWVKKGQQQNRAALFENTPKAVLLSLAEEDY", "assay": "Nanosyn kinase profiling, mobility shift assay", "type": "biochemical", "conditions": "12 points dose response", "method": "as §1"}, "MLD–STZ C57BL/6J mice": {"test_system": "MLD–STZ C57BL/6J mice", "assay": "MLD–STZ model: intraperitoneal insulin tolerance test (ipITT)", "type": "in vivo, mouse", "set-up": "ipITT glucose: unit not given here", "method": "C57Bl/6J mice were injected with 40 mg/kg streptozotocin or citrate buffer for 5 consecutive days. […] In d, basal glucose values were normalized to 100%. e Insulin secretion measured from retro-orbital blood draw during an ipGTT measured before (0 min) and 15 min after glucose injection; data are expressed as the ratio of secreted insulin at 15 min/0 min (stimulatory index). f The ratio of secreted insulin and glucose is calculated at fed state. g–i Mice were killed at day 35. g β-cell mass (given as percentage of the whole pancreatic section from ten sections spanning the width of the pancreas) and quantitative analyses from triple staining for h TUNEL or i Ki67, insulin, and DAPI expressed as percentage of TUNEL- or Ki67-positive β-cells ±SEM. An average number of 2331 (h), or 26369 (i) β-cells were counted. n = 9 mice/group for (a); n = 4–12 for (b); n = 5–15 for (c) and (d); n = 12–19 for (e); n = 8–14 for (f); n = 4–9 for (g); n = 4–11 for (h); and n = 6–11 mice/groupfor (i); all from three independent experiments).\nFor intraperitoneal glucose tolerance tests, mice were fasted 12 h overnight and injected i.p. with glucose (40%; B.Braun, Melsungen, Germany) at a dose of 1 g/kg body weight. Blood samples were obtained at time points 0, 15, 30, 60, 90, and 120 min for glucose measurements by using a Glucometer. For i.p. insulin tolerance tests, mice were injected with 0.75 U/kg body weight recombinant human insulin (Novolin, Novo Nordisk) after 4–5-h fasting, and glucose concentration was determined with the Glucometer. Insulin secretion was measured before (0 min) and after (15 and 30 min) i.p. injection of glucose (2 g/kg) and measured by using ultrasensitive mouse Elisa kit (ALPCO Diagnostics, Salem, NH)."}, "[1]": {"assay": "MLD–STZ model: body weight", "type": "in vivo, mouse", "conditions": "5 mg/kg i.p. daily, 35 days"}, "[2]": {"test_system": "isolated islets from db/db mice", "assay": "Ex vivo pMST1, BIM (western blot) and nuclear PDX1 in isolated db/db islets", "type": "cell-based, mouse", "conditions": "10 μM, 24 h ex vivo", "text": "mouse islets ex vivo. Representative double-stainings for PDX1 (green) and insulin (red) shown from isolated islets from 10-week old heterozygous db/+ mice or db/db littermates […]\nRepresentative microscopical images are shown. White arrow point to PDX1 deficient nuclei in db/db mouse islets. Related to Figure"}, "MST2": {"target": "MST2 (Homo sapiens, UniProt Q13188)", "sequence (Q13188 whole entry, species assumed)": "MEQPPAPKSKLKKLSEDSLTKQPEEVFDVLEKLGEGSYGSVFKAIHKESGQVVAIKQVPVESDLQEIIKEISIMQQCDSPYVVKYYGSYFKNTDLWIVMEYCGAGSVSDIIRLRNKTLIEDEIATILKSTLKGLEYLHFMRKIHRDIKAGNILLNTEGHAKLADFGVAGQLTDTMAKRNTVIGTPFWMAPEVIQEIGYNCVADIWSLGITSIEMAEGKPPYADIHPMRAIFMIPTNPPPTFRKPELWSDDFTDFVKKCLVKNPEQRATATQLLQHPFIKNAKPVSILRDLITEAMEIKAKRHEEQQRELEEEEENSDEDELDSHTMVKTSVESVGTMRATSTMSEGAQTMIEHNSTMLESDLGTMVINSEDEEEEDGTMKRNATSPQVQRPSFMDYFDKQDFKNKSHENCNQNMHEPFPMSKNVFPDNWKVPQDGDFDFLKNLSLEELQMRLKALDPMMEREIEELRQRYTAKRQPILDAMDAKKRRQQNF", "assay": "biochemical", "conditions": "read-out: % inhibition by neratinib"}, "FLT-3": {"target": "FLT-3 (Homo sapiens, UniProt P36888)", "assay": "Nanosyn kinase profiling, mobility shift assay", "conditions": "read-out: % inhibition by neratinib"}, "PRKACA": {"target": "PRKACA (Homo sapiens, UniProt P17612)", "assay": "Nanosyn kinase profiling, mobility shift assay", "conditions": "read-out: % inhibition by neratinib"}, "human islets": {"test_system": "human islets", "assay": "Western blot of pMST1 and caspase-3 cleavage under diabetogenic conditions", "conditions": "72 h, six donors"}},
  "note": "Where “and” joins values, the source holds several entries; their conditions need not be identical. Identical values can stand only once.",
  "data": [
    {"smiles": "CCOc1cc2ncc(C#N)c(Nc3ccc(OCc4ccccn4)c(Cl)c3)c2cc1NC(=O)/C=C/CN(C)C", "note": "[neratinib]", "values": [
      {"measurement": "IC50", "setting": "AXL", "result": 185, "unit": "nM"},
      {"measurement": "IC50", "setting": "CHEK2", "result": 937, "unit": "nM"},
      {"measurement": "IC50", "setting": "HIPK1", "result": "> 20000", "unit": "nM"},
      {"measurement": "IC50", "setting": "MAP4K2", "result": 102, "unit": "nM"},
      {"measurement": "IC50", "setting": "MST3", "result": 5, "unit": "nM"},
      {"measurement": "IC50", "setting": "PAK3", "result": 1500, "unit": "nM"},
      {"measurement": "IC50", "setting": "PAK5", "result": "> 20000", "unit": "nM"},
      {"measurement": "IC50", "setting": "PAK6", "result": "> 20000", "unit": "nM"},
      {"measurement": "IC50", "setting": "PHK1", "result": 5850, "unit": "nM"},
      {"measurement": "insulin sensitivity (normalized glucose levels)", "setting": "MLD–STZ C57BL/6J mice; MLD–STZ study", "result": "neither neratinib nor STZ had a significant effect"},
      {"measurement": "ipITT glucose", "setting": "MLD–STZ C57BL/6J mice; NeraCtr, 0 min, Mean", "result": 130.4},
      {"measurement": "ipITT glucose normalized to 100, MEAN", "setting": "MLD–STZ C57BL/6J mice; NeraCtr, 0 min after ins", "result": 100},
      {"measurement": "ipITT glucose", "setting": "MLD–STZ C57BL/6J mice; NeraCtr, 0 min after ins, individual mice", "result": "135 and 120 and 117 and 132 and 148"},
      {"measurement": "ipITT glucose", "setting": "MLD–STZ C57BL/6J mice; NeraCtr, 15 min, Mean", "result": 84.6},
      {"measurement": "ipITT glucose normalized to 100, MEAN", "setting": "MLD–STZ C57BL/6J mice; NeraCtr, 15 min after ins", "result": 64.88},
      {"measurement": "ipITT glucose", "setting": "MLD–STZ C57BL/6J mice; NeraCtr, 15 min after ins, individual mice", "result": "94 and 83 and 116 and 55 and 75"},
      {"measurement": "ipITT glucose", "setting": "MLD–STZ C57BL/6J mice; NeraCtr, 30 min, Mean", "result": 84.4},
      {"measurement": "ipITT glucose normalized to 100, MEAN", "setting": "MLD–STZ C57BL/6J mice; NeraCtr, 30 min after ins", "result": 64.72},
      {"measurement": "ipITT glucose", "setting": "MLD–STZ C57BL/6J mice; NeraCtr, 30 min after ins, individual mice", "result": "80 and 67 and 123 and 71 and 81"},
      {"measurement": "ipITT glucose", "setting": "MLD–STZ C57BL/6J mice; NeraCtr, 60 min, Mean", "result": 82.8},
      {"measurement": "ipITT glucose normalized to 100, MEAN", "setting": "MLD–STZ C57BL/6J mice; NeraCtr, 60 min after ins", "result": 63.5},
      {"measurement": "ipITT glucose", "setting": "MLD–STZ C57BL/6J mice; NeraCtr, 60 min after ins, individual mice", "result": "84 and 80 and 121 and 48 and 81"},
      {"measurement": "ipITT glucose", "setting": "MLD–STZ C57BL/6J mice; NeraCtr, 90 min, Mean", "result": 89},
      {"measurement": "ipITT glucose normalized to 100, MEAN", "setting": "MLD–STZ C57BL/6J mice; NeraCtr, 90 min after ins", "result": 68.25},
      {"measurement": "ipITT glucose", "setting": "MLD–STZ C57BL/6J mice; NeraCtr, 90 min after ins, individual mice", "result": "90 and 87 and 129 and 52"},
      {"measurement": "ipITT glucose", "setting": "MLD–STZ C57BL/6J mice; NeraSTZ, 0 min, Mean", "result": 286.636},
      {"measurement": "ipITT glucose normalized to 100, MEAN", "setting": "MLD–STZ C57BL/6J mice; NeraSTZ, 0 min after ins", "result": 100},
      {"measurement": "ipITT glucose", "setting": "MLD–STZ C57BL/6J mice; NeraSTZ, 0 min after ins, individual mice", "result": "462 and 369 and 228 and 215 and 295 and 196 and 335 and 337 and 212 and 296 and 208"},
      {"measurement": "ipITT glucose", "setting": "MLD–STZ C57BL/6J mice; NeraSTZ, 15 min, Mean", "result": 267.636},
      {"measurement": "ipITT glucose normalized to 100, MEAN", "setting": "MLD–STZ C57BL/6J mice; NeraSTZ, 15 min after ins", "result": 93.37},
      {"measurement": "ipITT glucose", "setting": "MLD–STZ C57BL/6J mice; NeraSTZ, 15 min after ins, individual mice", "result": "244 and 341 and 151 and 180 and 262 and 206 and 353 and 362 and 225 and 333 and 287"},
      {"measurement": "ipITT glucose", "setting": "MLD–STZ C57BL/6J mice; NeraSTZ, 30 min, Mean", "result": 187.273},
      {"measurement": "ipITT glucose normalized to 100, MEAN", "setting": "MLD–STZ C57BL/6J mice; NeraSTZ, 30 min after ins", "result": 65.33},
      {"measurement": "ipITT glucose", "setting": "MLD–STZ C57BL/6J mice; NeraSTZ, 30 min after ins, individual mice", "result": "114 and 186 and 102 and 127 and 207 and 173 and 304 and 307 and 97 and 216 and 227"},
      {"measurement": "ipITT glucose", "setting": "MLD–STZ C57BL/6J mice; NeraSTZ, 60 min, Mean", "result": 132.545},
      {"measurement": "ipITT glucose normalized to 100, MEAN", "setting": "MLD–STZ C57BL/6J mice; NeraSTZ, 60 min after ins", "result": 46.24},
      {"measurement": "ipITT glucose", "setting": "MLD–STZ C57BL/6J mice; NeraSTZ, 60 min after ins, individual mice", "result": "123 and 110 and 79 and 95 and 108 and 169 and 231 and 87 and 198 and 150"},
      {"measurement": "ipITT glucose", "setting": "MLD–STZ C57BL/6J mice; NeraSTZ, 90 min, Mean", "result": 132.455},
      {"measurement": "ipITT glucose normalized to 100, MEAN", "setting": "MLD–STZ C57BL/6J mice; NeraSTZ, 90 min after ins", "result": 46.21},
      {"measurement": "ipITT glucose", "setting": "MLD–STZ C57BL/6J mice; NeraSTZ, 90 min after ins, individual mice", "result": "174 and 97 and 79 and 135 and 116 and 100 and 155 and 203 and 103 and 136 and 159"},
      {"measurement": "body weight", "setting": "[1]", "result": "no influence on body weight"},
      {"measurement": "MST1 activation and proapoptotic BIM in db/db islets", "setting": "[2]", "result": "reversed"},
      {"measurement": "nuclear PDX1 expression in db/db islets", "setting": "[2]", "result": "enhanced nuclear PDX1 expression"},
      {"measurement": "inhibition at 10 µM", "setting": "MST2", "result": 97, "unit": "%"},
      {"measurement": "inhibition at 10 µM", "setting": "FLT-3", "result": 47, "unit": "%"},
      {"measurement": "inhibition at 10 µM", "setting": "PRKACA", "result": 3, "unit": "%"},
      {"measurement": "cytokine- and high glucose/palmitate-induced MST1 activation and caspase-3 activation", "setting": "human islets", "result": "potently and significantly inhibited"}
    ]}
  ]
}
